The values that follow come from patent US20260364101A1, “OLEUROPEIN IN THE MANAGEMENT OF CANCER” (FUNDACIÓN MIGUEL SERVET, priority 2023, published 2026).

The test system of assay [1] is MDSCs. Kind of assay: ex vivo differentiated MDSCs treated with compound, marker expression by flow cytometry (FIG. 1a). In kind it is cell-based, mouse. The settings on record: oleuropein 50 μM. The method, then:
(§1) Immunosuppressive myeloid cell subsets resembling tumor-infiltrating subsets (g-MDSCs, m-MDSCs and TAMs) were differentiated from mouse bone marrow following published procedures using conditioning medium produced by LLC tumor cells stably expressing GMCSF and MCSF cells. g- and m-MDSCs were purified using the myeloid-derived suppressor cell isolation kit (Miltenyi Biotec, Bergisch, Germany) according to manufacturer's recommendations. MDSCs and TAMs were seeded with 500 nM BML-275 or 50 μM oleuropein and incubated for seven days.
(§2) Surface and intracellular staining were carried out as described before with the following fluorochrome-conjugated antibody clones: AF488 anti-CD49d (R1-2), PE anti-CD4 (GK1.5), APCanti-CD8(53-6.7), brilliant Violet 510™ anti-I-A/I-E (M5/114.15.2,PE/Cyanine7anti-Ly-6G (1A8), and APC anti-CD80 (16-10A1) (Biolegend), FITC anti-IL-12 (C15.6) and BV421 anti-IL-2 (JES6-5H4) (BD Bioscience), APC-Vio® 770 anti-Ly-6C (REA796), PE REAfinity™ anti-F4/80 (REA126), and APC anti-CD68 (REA886) (Miltenyi), PerCP-Cyanine5.5 Anti-Human/Mouse CD11b (M1/70) (Tonbo), and AF488 anti-IFNγ (Clone XMG1.2) (BD Pharmigen). For human cells, it was used the following fluorochrome-conjugated antibodies: PerCP-Cy5.5-anti-CD11b (integrina alfa M) (M1/70), Violet Fluor 450 anti-CD14 antibody (61D3) (Tonbo), PE anti-CD115 (CSF-1R) (9-4D2-1E4) (Biolegend), PE-Cy™7 anti-CD11c (Clone B-ly6) (BD Bioscience), and APC anti-HLA-DR (REA517) (Miltenyi).
Data were collected using the FACSCanto Flow Cytometer (BD Biosciences) for ex vivo and in vitro experiments at Navarrabiomed Biomedical Research Center and Cyroflex LX flow cytometer (Beckman Counter). Data were analyzed with Flowjo.
A general note: Flow cytometry measures light scatter and fluorescence of single cells or particles in a stream.

Assay [2] deals with LLC cells. In words: LLC lung cancer mouse tumor model resistant to immunotherapy. The format is in vivo, C57BL/6 mice. Conditions: for tumor growth: 300 μg oleuropein i.p. every other day for eight days. Here is the method: (§3) C57BL/6 female mice were subcutaneously (s.c) injected with […] LLC cells or 0.5×10^6 MC38 cells per animal. When tumor growth reached an average diameter of 3.5 mm (day 0), mice received 100 μg of anti-PD-1 mAb (RPMI-14, BioXCell) intraperitoneally (i.p) at days 0, 5, and 13. Control mice received the same volume of saline. For oleuropein, mice received 300 μg oleuropein at days-1, 2, 4, 6, and 8. As negative control, the same volume of saline was injected.
(§4) The efficacy of all treatments was evaluated every two days by measuring two perpendicular tumor measurements. The size was calculated using the formula: Size=Length x Width. Mice were humanely sacrificed when tumor size reached ~150 mm^2, or when tumor ulceration or evident discomfort were observed. For rechallenge experiments in the MC38 model, mice that rejected tumors were injected s.c. with 5×10^5 MC38 cells in the left flank three months after the first tumor inoculation. Naïve mice were included as controls and development of tumors was evaluated for two months.
(§5) Tumor measurements of in vivo experiments are represented as tumor diameter (mm^2) and plotted either as individual data points for one individual mouse or as mean±SD as indicated in the figure legends. Statistical analysis was performed using one way ANOVA test followed by a Sidak's multiple comparison test at 0.05 level of significance. For in vivo experiments, to compare multiple experimental groups, one-way ANOVA test and Tukey's multiple comparison test were used. Two-tailed Student's t test was applied to compare two experimental groups. Survival of tumor-bearing mice is represented by Kaplan-Meier plots and analyzed by log-rank test. The p values <0.05 were considered statistically significant.
To test antitumor capacities in vivo, LLC cells were implanted subcutaneously into groups of mice and tumors were allowed to grow to an average diameter of approximately […]. This model was chosen because LCC cells are poorly immunogenic and notoriously refractory to PD-L1/PD-1 blockade. Oleuropein was then administered intraperitoneally every other day for eight days.
To address whether oleuropein could be combined with anti-PD1 immunotherapy to treat LCC-derived tumors, anti-PD1 mAb was systemically administered in combination with intraperitoneal injection of oleuropein. As controls, groups of mice treated with each of the agents singly and saline-treated groups were included.

The test system of assay [3] is TAMs. Kind of assay: morphology of ex vivo TAM cultures, phase contrast micrographs (FIG. 2a). In kind it is cell-based, mouse. Conditions: TAMs treated with oleuropein. Here is the method: as §1
In assay [4] the test system is CD4 T cells. In words: mixed lymphocyte reaction (MLR) with MDSCs as stimulator cells (FIG. 1c,d). The format is cell-based, mouse. The method, then: MLR were carried out following standard procedures. Briefly, 100,000 MDSCs or TAMs from C57BL/6 mice were co-cultured in 96-well plates with 100,000 lymphocytes from BALB/c mice. Co-cultured cells were treated with 50 µM oleuropein and compared with control vehicle. After 5 days, T-lymphocyte activation, differentiation and proliferation were assessed by flow cytometry. T-cell activation and proliferation markers (Ki-67) and pro-inflammatory cytokine production (IL-2 and IFNγ) were evaluated by flow cytometry in CD4 and CD8 T cells as described before.
as §2

Assay [5] deals with MDSC subsets. Kind of assay: abundance of MDSC subsets in vivo. Conditions: LXR agonist.
Assay [6] concerns MC38 cells. Kind of assay: MC38 colorectal cancer mouse tumor model, with rechallenge. The format is in vivo, C57BL/6 mice. Conditions: MC38 s.c. Here is the method:
as §3, §4, §5
The efficacy of oleuropein and oleuropein/PD-1 blockade combinations were also tested in a colorectal cancer model. To this end, MC38 cells were subcutaneously implanted in mice and allowed to grow until tumors reached a diameter of about […]. Then, oleuropein was administered intraperitoneally one day prior to anti-PD1 mAb injection. […]

Setting [7] is: LLC s.c., oleuropein 300 μg i.p. alone or with anti-PD-1 mAb 100 μg i.p.

“Also recorded” adds a separate entry of the source.

On to `C/C=C1/[C@H](O[C@@H]2O[C@H](CO)[C@@H](O)[C@H](O)[C@H]2O)OC=C(C(=O)OC)[C@H]1CC(=O)OCCc1ccc(O)c(O)c1` [oleuropein], for which the “polarization of MDSCs” value in assay [1] was “polarized MDSCs and TAMs into activated myeloid cells”. Also, in assay [1] (MDSCs), the IL-12 entry is “significant increase”. The tumor growth entry in assay [2] (LLC s.c.) is given as “significantly delayed tumor growth”; in assay [2] (LLC s.c., listed as Oleuropein) it was “delayed tumor growth”; in assay [6] (oleuropein 300 μg i.p. or anti-PD-1 mAb 100 μg i.p.), “significantly delayed the growth of MC38 tumors”. The “increased survival, time” value in assay [2] (setting [7]) was “up to 20 days”. For the same compound, the survival entry in assay [2] (setting [7]) is listed as “significant increase in long-term survival”; in assay [2] (LLC s.c., oleuropein 300 μg i.p. alone or with anti-PD-1 mAb 100 μg i.p., listed as Oleuropein), “significantly increased survival”; in assay [6] (oleuropein 300 μg i.p. and/or anti-PD-1 mAb 100 μg i.p.), “significant increase in survival”. In addition, the “mice responding to the treatment” value in assay [2] (LLC s.c., oleuropein i.p.) is “most of the mice responding to the treatment”. The “improvement of aPD-1 therapies” value in assay [2] (tumor model intrinsically resistant to PD-1 blockade) is “improved aPD-1 therapies in a tumor model intrinsically resistant to PD-1 blockade; also recorded: improved aPD-1 and anti-LAG-3 therapies”. The morphology / phenotype result in assay [3] is “acquired an M1-like phenotype”. The “T cell activation capacities” value in assay [4] (oleuropein-reprogrammed MDSCs and TAMs) is given as “enhanced T cell activation capacities”. For the same compound, the immune cell activation entry in assay [4] (particularly CD4 T cell activation) is listed as “induces an immune cell activation”. Moreover, the “CD4 T cell stimulation assessed by IFNγ and IL-2 production” value in assay [4] (treated MDSCs as stimulators, 5 days) is reported as “potently stimulated”. In assay [5], the “abundance of MDSC subsets and of immunosuppressive TME” value was “reduced the abundance of MDSC subsets in vivo as well as of immunosuppressive TME”. Moreover, the cure rate in assay [6] (oleuropein 300 μg i.p.) turned out to be 16%.
